One experiment deals with T1, C1b domain of human PKCα (Homo sapiens, UniProt P17252).
T1 construct: Genes encoding C1b domains of human PKCα, δ, ε, θ, and PKD1 (PKCμ) were synthesized; made in house; host or cells: E. coli BL21(DE3)
The experiment in a line: biochemical. Type of experiment: binding. Conditions: 3H-PDBu competition.

For a further experiment, the target named is T2, C1b domain of human PKCδ (Homo sapiens, UniProt Q05655).
T2 construct: Genes encoding C1b domains of human PKCα, δ, ε, θ, and PKD1 (PKCμ) were synthesized; made in house; host or cells: E. coli BL21(DE3)
T2 sequence (Q05655 230-280 limits assumed): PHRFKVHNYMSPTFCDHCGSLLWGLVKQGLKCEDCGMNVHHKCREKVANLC
As to the kind of experiment: biochemical. It counts as binding. The conditions noted are these: 3H-PDBu competition. In short, it runs like this: (§1)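 Binding is reported as Ki, derived from IC50 using Cheng-Prusoff with the experimentally determined 3H-PDBu Kd of each protein preparation. Tracer displacement from recombinant human GST-C1b (E. coli BL21(DE3)) was read by filter scintillation after 10 min at 37° C plus 20 min on ice.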

Experiment [1] concerns the target T3, C1b domain of human PKD1 (PKCμ) (Homo sapiens, UniProt Q15139).
T3 construct: Genes encoding C1b domains of human PKCα, δ, ε, θ, and PKD1 (PKCμ) were synthesized; made in house; host or cells: E. coli BL21(DE3)
T3 sequence (Q15139 270-320 limits assumed): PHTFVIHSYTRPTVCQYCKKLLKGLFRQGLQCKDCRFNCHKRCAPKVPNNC
As to the kind of experiment: Competitive 3H-PDBu binding assay, C1b domain of PKD1 (PKCμ). Conditions: 3H-PDBu competition. The procedure: Compounds described in this disclosure were tested for binding affinity to C1b domain of PKC isoforms. Compound binding affinity to C1b domain of PKC isoforms was derived from competitive binding assay using radioactive tracer ^3H-PDBu and recombinant GST-C1b or full-length of human PKC proteins based on modified procedures from Methods in Molecular Biology, vol.
Genes encoding C1b domains of human PKCα, δ, ε, θ, and PKD1 (PKCμ) were synthesized and inserted into pGEX-2TK or pGEX-4T1 vectors for expression and production of GST-C1b proteins in E. coli BL21(DE3) via IPTG induction. The target proteins were purified by glutathione sepharose 4B and followed by ion exchange chromatography if needed to achieve purity >70%. Aliquots of the purified proteins were stored at −80 degree for binding assay (storage buffer: 20 mM Tris pH 8.0, 200 mM NaCl, 10% glycerol, 1 mM DTT).
The plate was incubated at 37° C. on a shaker at 300 rpm for 10 minutes and then put on ice for 20 minutes. […] The bottom of the filter plate was sealed and 50 μL of MicroScint-20 (PerkinElmer) cocktail was added to each well. ^3H-PDBu trapped in each well was counted using PerkinElmer MicroBeta2 Reader. Data were analyzed using GraphPad Prism5 with the model “log(inhibitor) vs. response-variable slope” to fit the IC50, and then IC50 was transformed to Ki using Cheng-Prusoff equation: Ki=IC50/(1+added radio ligand/Kd). Kd is the binding affinity of each protein preparation to ^3H-PDBu, determined experimentally.

Another experiment has as its system A549 cell line. As to the kind of experiment: Proliferation of A549 (CellTiter Glo). Conditions: Homo sapiens, read-out: IC50 μM (A549 Cell Line). It counts as cell-based. An outline of the steps:
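Compound effect on proliferation was read as CellTiter Glo luminescence after 96 h exposure to a 3-fold dilution series (≤0.25% DMSO). A549 cells, which carry activating K-Ras, were plated at 1,000/well one day before dosing. IC50, relative IC50 and maximal inhibition were fitted from % inhibition versus DMSO control.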
For orientation: ATP-based viability assays read luminescence as a measure of living cells.

A further experiment has as its target T4, C1b domain of human PKCε (Homo sapiens, UniProt Q02156).
T4 construct: Genes encoding C1b domains of human PKCα, δ, ε, θ, and PKD1 (PKCμ) were synthesized; made in house; host or cells: E. coli BL21(DE3)
As to the kind of experiment: biochemical. Conditions: 3H-PDBu competition. Type of experiment: binding. An outline of the steps:
as §1

Another experiment addresses T5, C1b domain of human PKCθ (Homo sapiens, UniProt Q04759).
T5 construct: Genes encoding C1b domains of human PKCα, δ, ε, θ, and PKD1 (PKCμ) were synthesized; made in house; host or cells: E. coli BL21(DE3)
T5 sequence (Q04759 231-281 limits assumed): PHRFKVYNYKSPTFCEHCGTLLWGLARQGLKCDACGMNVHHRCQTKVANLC
As to the kind of experiment: biochemical. Type of experiment: binding. Conditions: 3H-PDBu competition. In short, it runs like this:
as §1

Read-outs that look alike come from different tables or passages of the source.

Data on three compounds can be found in patent publication US20240197666A1, “DITERPENOID COMPOUNDS THAT ACT ON PROTEIN KINASE C (PKC)” (K-Gen Therapeutics, Inc., priority 2021, published 2024).

T4 sequence (Q02156 242-292 limits assumed): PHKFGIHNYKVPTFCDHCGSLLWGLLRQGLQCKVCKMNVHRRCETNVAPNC

By Ki is commonly meant a measure of affinity in units of concentration, obtained from inhibition or displacement. Lower therefore signals a stronger hold on the target. Usually IC50 stands for the point on the concentration scale where inhibition reaches its midpoint. `CC1=C[C@H]2[C@@]3(O)[C@H](C)C[C@]4(OC(=O)[C@@H](N)C/C=C/c5ccccc5)[C@H]([C@@H]3C=C(CO)C[C@]2(O)C1=O)C4(C)C`: the Ki was 100 to 200 nM at C1b domain of human PKCα, 5 to 10 nM on C1b domain of human PKCδ and under 5 nM in experiment [1]. In addition, the IC50 in the experiment on A549 cell line (A549, 96 hours, CellTiter Glo) lay within 0.06 to 0.1 µM.

Regarding `CC1=C[C@H]2[C@@]3(O)[C@H](C)C[C@]4(OC(=O)[C@@H](N)CCc5ccc(C(F)(F)F)cc5)[C@H]([C@@H]3C=C(CO)C[C@]2(O)C1=O)C4(C)C`, the values for the Ki (on C1b domain of human PKCα; on C1b domain of human PKCδ; in experiment [1]) were 200 to 400 nM, 10 to 30 nM and under 5 nM, respectively. The IC50 with A549 cell line (A549, 96 hours, CellTiter Glo) lay within 0.1 to 0.2 µM.

`CC1=C[C@H]2[C@@]3(O)[C@H](C)C[C@]4(OC(=O)[C@@H](N)CCCCCCc5ccc(C(F)(F)F)cc5)[C@H]([C@@H]3C=C(CO)C[C@]2(O)C1=O)C4(C)C`: the Ki at C1b domain of human PKCα fell in the range of 60 to 100 nM; at C1b domain of human PKCε it was 10 to 30 nM; at C1b domain of human PKCθ, 10 to 30 nM. The IC50 in the experiment on A549 cell line (A549, 96 h) lay in the range of 0.01 to 0.03 µM.
